The subject of data set [1] is VeroE6 cells. Nature of the data set: cell viability assays on VeroE6 cells. To be noted: 2 mg/ml. The format is cell-based, African green monkey.
In data set [2] the test system is SARS-CoV-2. Nature of the data set: quantitative plaque assay for SARS-CoV-2 in VeroE6 cells. Type of data set: cell-based. On the set-up: lowest concentration with significant reduction in viral load: unit not given here. Conditions: for suppression of the viral burden elicited by SARS-CoV-2: MOI 0.01, 24 Hr after the initial infection, simultaneous treatment with virus plus lipid. On the procedure:
VeroE6 cells were infected with SARS-CoV-2 at an MOI=0.01 in either the absence of lipids, or presence of POPG, or PI, or POPC, at concentrations of 250 μg/ml-1000 μg/ml (SARS-CoV-2+POPG, SARS-CoV-2+PI) or the control lipid phosphatidylcholine (PC), at various concentrations (250 μg-1000 μg/ml) (SARS-CoV-2+PC). Cells were preincubated with lipids 30 mins before viral inoculation. Culture media was harvested at 24 hr and processed for quantitative plaque assay for SARS-CoV-2 (FIG. 1A) and for viral yield as a function of phospholipid concentration (FIG. 1). The data are shown as mean+/−SE for three independent experiments in log10 scale. is a graph of viral yield as a function of phospholipid concentration.
A sample holder containing 96 wells (3 plates) was provided and was plated with VeroE6 cells (a cell lineage isolated from kidney epithelial cells extracted from an African green monkey) at a concentration of 5×10^4 cells/well in 100 μl of medium. The medium utilized comprised Dulbecco's Modified Eagle Medium (DMEM), 5% fetal bovine serum (FCS), 1% L-glutamine, and 10,000 U/ml penicillin-streptomycin (PS). Here, it is noted that the antibiotics penicillin and streptomycin are commonly utilized to prevent bacterial contamination of cell cultures due to their effective combined action against gram-positive and gram-negative bacteria.
The wells were washed two times with calcium-free and magnesium-free phosphate buffered saline (PBS) (100 μl/well), and then an additional time with a culture medium consisting of DMEM, L-glutamine, 0.1% bovine serum albumin (BSA) and 10,000 U/ml PS.
The cells were then preincubated with lipids in the culture medium (100 μl/well) for 30-60 minutes at 37° C. Samples of SARS-CoV-2 virus were added at multiplicities of infection (MOI) of 0.01 and the virus was allowed to absorb for 2 hours at 37° C. […]
FIGS. 1A and 1B depicts the results obtained for quantitative plaque assay for SARS-CoV-2 (FIG. 1A) and for % viral yield as a function of phospholipid concentration (FIG. 1B).

For data set [3], the target named is T1, SARS-CoV-2 S1 ECD protein (Severe acute respiratory syndrome coronavirus 2, UniProt P0DTC2).
T1 construct: SARS-CoV-2 S1 ECD protein
Nature of the data set: binding to SARS-CoV-2 S1 ECD protein.

In data set [4] the test system is SARS-CoV-2. Nature of the data set: SARS-CoV-2 replication by qRT-PCR in differentiated nasal epithelial cells from a patient with COPD. The format is cell-based. Conditions: 48 hrs, 5 mg/ml POPG, 2 mg/ml PI.
In data set [5] the test system is SARS-CoV-2. Nature of the data set: cytopathic effect by SARS-CoV-2 in VeroE6 cells (histological images). The format is cell-based. Conditions: 72 hrs after infection, POPG 1000 μg/ml, PI 500 μg/ml, PC 2000 μg/ml.
The subject of data set [6] is primary human bronchial epithelial cells. In words: 3H-leucine protein synthesis and secretion in primary human bronchial epithelial cells in ALI cultures. The format is cell-based. Conditions: for pleiotropic inhibition of metabolism (3H-intracellular protein synthesis, 3H secreted protein): 64 h with 3H-leucine, 5 mg/mL POPG or 2 mg/ml PI in apical media; for cytotoxic effects on primary airway epithelial cells: cells from patients with COPD as worded in b103 (FIGS. 11A-11B). On the procedure:
Bronchial epithelia cells were incubated for 64 h with 3H-leucine in either the presence, or absence of 5 mg/mL of POPG; or 2 mg/ml of PI in only the apical media. 3H-intracellular protein synthesis (FIG. 11A), and 3H secreted protein in apical media (FIG. 11B) are shown. […]

For data set [7], the system named is SARS-CoV-2. Type of data set: cell-based. To be noted: 48 hrs; for reduction of SARS-CoV-2 mRNA expression: healthy control subjects (n=3), lipid 16 hrs before infection, 5 mg/ml POPG, 2 mg/ml PI.
The test system of data set [8] is SARS-CoV-2. In words: hamster model of SARS-CoV-2 infection, intranasal treatment. The format is in vivo, Syrian hamsters.

As to `CCCCCCCC/C=C\CCCCCCCC(=O)O[C@H](COC(=O)CCCCCCCCCCCCCCC)COP(=O)(O)OCC(O)CO` (stereo partly shown) [POPG, palmitoyl-oleoyl-phosphatidylglycerol], in data set [1], the “toxicity on VeroE6 cells” value is “Neither POPG, PI or POPC elicited toxicity”. The “suppression of the viral burden elicited by SARS-CoV-2” value in data set [2] is listed as 90%. Moreover, in data set [3], the “binding to SARS-CoV-2 S1 ECD protein” value is “weak affinity and non-specific manner”. Also, the “attenuation of SARS-CoV-2 replication” value in data set [4] stood at 80%. Besides, the “state of infected cell cultures (cytopathic effect)” value (from here on “state of infected cell cultures”) in data set [5] is recorded as “remained intact”. Further, in data set [6], the “pleiotropic inhibition of metabolism (3H-intracellular protein synthesis, 3H secreted protein)” value is reported as “does not produce pleiotropic inhibition of metabolism” and the “cytotoxic effects on primary airway epithelial cells” value is “neither POPG nor PI had cytotoxic effects”. Besides, in data set [7], the “reduction of SARS-CoV-2 mRNA expression” value is reported as 75% and the “replication in differentiated nasal epithelial cells of severe asthmatics” value was “inhibit replication”.

For the compound “phosphatidylcholine [PC, reference compound]”, the “toxicity on VeroE6 cells” value in data set [1] was “Neither POPG, PI or POPC elicited toxicity”. The “state of infected cell cultures” value in data set [5] was “significant cytopathic effects”. Also, in data set [7] (healthy control subjects, PC 10 mg/ml), the “effect on SARS-CoV-2 replication” value is on record as “did not affect SARS-CoV-2 replication”.

For the compound phosphatidylinositol [PI], the “toxicity on VeroE6 cells” value in data set [1] is given as “Neither POPG, PI or POPC elicited toxicity”. In addition, in data set [2] (24 hr), the “lowest concentration with significant reduction in viral load” value is at least 250. Moreover, in data set [2], the “suppression of the viral burden elicited by SARS-CoV-2” value was determined as 99%. The “binding to SARS-CoV-2 S1 ECD protein” value in data set [3] is “weak affinity and non-specific manner”. Besides, the “attenuation of SARS-CoV-2 replication” value in data set [4] turned out to be 85%. Also, the “state of infected cell cultures” value in data set [5] was “remained intact”. In addition, in data set [6], the “pleiotropic inhibition of metabolism (3H-intracellular protein synthesis, 3H secreted protein)” value is given as “does not produce pleiotropic inhibition of metabolism” and the “cytotoxic effects on primary airway epithelial cells” value is reported as “neither POPG nor PI had cytotoxic effects”. The “SARS-CoV-2 replication in hamsters (plaque assays of pharyngeal swabs)” value in data set [8] (PI 2 mg/animal intranasal, days 1-3) is on record as “inhibits SARS-CoV-2 replication”. Moreover, the “mean turbinate viral load” value in data set [8] (hamsters, 2 mg PI intranasal, after 24 hours, untreated group 2.4E+04) is 9.3E+01. Besides, the “% inhibition of viral load” value in data set [8] (hamsters, single dose of 2 mg PI, after 24 hours, versus untreated) stood at 99.6%. In data set [7], the “reduction of SARS-CoV-2 mRNA expression” value is reported as 87% and the “replication in differentiated nasal epithelial cells of severe asthmatics” value is given as “inhibit replication”.
